Measurements from ChEMBL document CHEMBL3885861, “Open TG-GATES”.

Organism: Rattus norvegicus
Assay: Open TG-GATES - Regimen: Daily Repeat
Format: toxicity, organism-based, Sprague-Dawley
Parameters: regimen Daily Repeat, gender Male, age 6 weeks
Settings: in vivo, po, 0 mg/kg, route gavage, dose level Control; for Bas / Eos / Fbg / Ht / Lym / MCHC / MCV / Mono / PT / Plat / RBC / Ret / WBC / Neu: tissue Blood; for KIDNEY_L / KIDNEY_R / KIDNEY_TOTAL: tissue Kidney; for ALT / AST / CRE / Ca / DBIL / GLC / IP / K / LDH / Na / PL / RALB / TBIL / TC / TG / TP / gamma-GTP / BUN / Cl: tissue Plasma

COc1ccc([C@@H]2Sc3ccccc3N(CCN(C)C)C(=O)[C@@H]2OC(C)=O)cc1 [DILTIAZEM]
TERMINAL_BW (72 h, time 3 day): 215.4 g | Bas (72 h, time 3 day): 0.2% | Eos (72 h, time 3 day): 1% | Fbg (72 h, time 3 day): 262.2 mg/dL | Ht (72 h, time 3 day): 41.3% | Lym (72 h, time 3 day): 74.6% | MCHC (72 h, time 3 day): 32.7% | MCV (72 h, time 3 day): 67.4 fL | Mono (72 h, time 3 day): 3.4% | PT (72 h, time 3 day): 14.3 s | Plat (72 h, time 3 day): 126.4 x10_4/uL | RBC (72 h, time 3 day): 613.4 x10_4/ul | Ret (72 h, time 3 day): 8.9% | WBC (72 h, time 3 day): 101.8 x10_2/uL | KIDNEY_L (72 h, time 3 day): 1 g | KIDNEY_R (72 h, time 3 day): 1 g | KIDNEY_TOTAL (72 h, time 3 day): 1.9 g | ALT (72 h, time 3 day): 45.8 IU/L | AST (72 h, time 3 day): 76.8 IU/L | CRE (72 h, time 3 day): 0.2 mg/dL | Ca (72 h, time 3 day): 11.2 mg/dL | DBIL (72 h, time 3 day): 0.016 mg/dL | GLC (72 h, time 3 day): 177.4 mg/dL | IP (72 h, time 3 day): 7.6 mg/dL | K (72 h, time 3 day): 4 meq/L | LDH (72 h, time 3 day): 97 IU/L | Na (72 h, time 3 day): 143.8 meq/L | PL (72 h, time 3 day): 151.2 mg/dL | RALB (72 h, time 3 day): 2.7 g/dL | TBIL (72 h, time 3 day): 0.032 mg/dL | TC (72 h, time 3 day): 79.6 mg/dL | TG (72 h, time 3 day): 86 mg/dL | TP (72 h, time 3 day): 5.5 g/dL | gamma-GTP (72 h, time 3 day): 1.2 IU/L | TERMINAL_BW ([…], time 7 day): 250.6 g | TERMINAL_BW ([…], time 14 day): 321.8 g | TERMINAL_BW ([…], time 28 day): 411.3 g | Bas ([…], time 7 day): 0% | Eos ([…], time 7 day): 0.8% | Fbg ([…], time 7 day): 297.6 mg/dL | Ht ([…], time 7 day): 41.8% | Lym ([…], time 7 day): 77% | MCHC ([…], time 7 day): 33.1% | MCV ([…], time 7 day): 64.6 fL | Mono ([…], time 7 day): 2.8% | Neu ([…], time 7 day): 18.4% | PT ([…], time 7 day): 14.2 s | Plat ([…], time 7 day): 137.2 x10_4/uL | RBC ([…], time 7 day): 648 x10_4/ul | Ret ([…], time 7 day): 6.7% | WBC ([…], time 7 day): 91.7 x10_2/uL | Bas ([…], time 14 day): 0.4% | Eos ([…], time 14 day): 0.6% | Fbg ([…], time 14 day): 290.8 mg/dL | Ht ([…], time 14 day): 44% | Lym ([…], time 14 day): 82.2% | MCHC ([…], time 14 day): 33.2% | MCV ([…], time 14 day): 62.3 fL | Mono ([…], time 14 day): 2.2% | Neu ([…], time 14 day): 14% | PT ([…], time 14 day): 14.1 s | Plat ([…], time 14 day): 141.2 x10_4/uL | RBC ([…], time 14 day): 706.2 x10_4/ul | Ret ([…], time 14 day): 5.2% | Bas ([…], time 28 day): 0.4% | Eos ([…], time 28 day): 1% | Fbg ([…], time 28 day): 302.8 mg/dL | Ht ([…], time 28 day): 45.8% | Lym ([…], time 28 day): 77% | MCHC ([…], time 28 day): 34.1% | MCV ([…], time 28 day): 57.2 fL | Mono ([…], time 28 day): 2.4% | Neu ([…], time 28 day): 18.8% | PT ([…], time 28 day): 14 s | Plat ([…], time 28 day): 112.6 x10_4/uL | RBC ([…], time 28 day): 801.4 x10_4/ul | Ret ([…], time 28 day): 2.5% | WBC ([…], time 28 day): 99.4 x10_2/uL | KIDNEY_L ([…], time 7 day): 1.1 g | KIDNEY_R ([…], time 7 day): 1 g | KIDNEY_TOTAL ([…], time 7 day): 2.1 g | KIDNEY_L ([…], time 14 day): 1.3 g | KIDNEY_R ([…], time 14 day): 1.3 g | KIDNEY_TOTAL ([…], time 14 day): 2.6 g | KIDNEY_L ([…], time 28 day): 1.5 g | KIDNEY_R ([…], time 28 day): 1.5 g | KIDNEY_TOTAL ([…], time 28 day): 3 g | ALT ([…], time 7 day): 45.4 IU/L | AST ([…], time 7 day): 72.6 IU/L | BUN ([…], time 7 day): 14.8 mg/dL | CRE ([…], time 7 day): 0.2 mg/dL | Ca ([…], time 7 day): 11.1 mg/dL | Cl ([…], time 7 day): 106.4 meq/L | DBIL ([…], time 7 day): 0.014 mg/dL | GLC ([…], time 7 day): 187.8 mg/dL | IP ([…], time 7 day): 7.6 mg/dL | K ([…], time 7 day): 4.3 meq/L | LDH ([…], time 7 day): 84 IU/L | Na ([…], time 7 day): 143.8 meq/L | PL ([…], time 7 day): 162.4 mg/dL | RALB ([…], time 7 day): 2.8 g/dL | TBIL ([…], time 7 day): 0.018 mg/dL | TC ([…], time 7 day): 82.8 mg/dL | TG ([…], time 7 day): 112.6 mg/dL | TP ([…], time 7 day): 5.8 g/dL | gamma-GTP ([…], time 7 day): 1 IU/L | ALT ([…], time 14 day): 39 IU/L | AST ([…], time 14 day): 65.6 IU/L | BUN ([…], time 14 day): 16 mg/dL | CRE ([…], time 14 day): 0.2 mg/dL | Ca ([…], time 14 day): 10.8 mg/dL | Cl ([…], time 14 day): 105.6 meq/L | DBIL ([…], time 14 day): 0.018 mg/dL | GLC ([…], time 14 day): 189 mg/dL | IP ([…], time 14 day): 6.9 mg/dL | K ([…], time 14 day): 4.1 meq/L | LDH ([…], time 14 day): 92.8 IU/L | Na ([…], time 14 day): 144 meq/L | PL ([…], time 14 day): 160.4 mg/dL | RALB ([…], time 14 day): 2.8 g/dL | TBIL ([…], time 14 day): 0.02 mg/dL | TC ([…], time 14 day): 71.2 mg/dL | TG ([…], time 14 day): 180.4 mg/dL | TP ([…], time 14 day): 5.8 g/dL | gamma-GTP ([…], time 14 day): 1 IU/L | ALT ([…], time 28 day): 37.2 IU/L | AST ([…], time 28 day): 66 IU/L | BUN ([…], time 28 day): 16.8 mg/dL | CRE ([…], time 28 day): 0.3 mg/dL | Ca ([…], time 28 day): 11.1 mg/dL | Cl ([…], time 28 day): 108 meq/L | DBIL ([…], time 28 day): 0.014 mg/dL | GLC ([…], time 28 day): 198.8 mg/dL | IP ([…], time 28 day): 6.8 mg/dL | K ([…], time 28 day): 3.7 meq/L | LDH ([…], time 28 day): 63.4 IU/L | Na ([…], time 28 day): 146.4 meq/L | PL ([…], time 28 day): 160.2 mg/dL | RALB ([…], time 28 day): 2.9 g/dL | TBIL ([…], time 28 day): 0.028 mg/dL | TC ([…], time 28 day): 79.4 mg/dL | TG ([…], time 28 day): 125.2 mg/dL | TP ([…], time 28 day): 6.2 g/dL
